Measured values reported in patent publication US7982042B2, “Thiozanthene derivatives as delta-opioid modulators” (priority 2003, dated 2011).
Read-outs that look alike come from different tables or passages of the source.

Columns and labels:
[1] = molecular target: T1, Rat brain delta opioid receptor (Rattus norvegicus, UniProt P33533); experiment: Rat brain delta opioid receptor binding; settings: rDOR Ki
T1 construct: from tissue; host or cells: rat brain

delta opioid receptor = molecular target: T2, delta opioid receptor (Mus musculus, UniProt P32300); experiment: [35S]GTPγS binding assay in NG108-15 cell membrane; type: biochemical
T2 construct: host or cells: NG108-15 cells (membranes, purchased)
T2 sequence (P32300 whole entry): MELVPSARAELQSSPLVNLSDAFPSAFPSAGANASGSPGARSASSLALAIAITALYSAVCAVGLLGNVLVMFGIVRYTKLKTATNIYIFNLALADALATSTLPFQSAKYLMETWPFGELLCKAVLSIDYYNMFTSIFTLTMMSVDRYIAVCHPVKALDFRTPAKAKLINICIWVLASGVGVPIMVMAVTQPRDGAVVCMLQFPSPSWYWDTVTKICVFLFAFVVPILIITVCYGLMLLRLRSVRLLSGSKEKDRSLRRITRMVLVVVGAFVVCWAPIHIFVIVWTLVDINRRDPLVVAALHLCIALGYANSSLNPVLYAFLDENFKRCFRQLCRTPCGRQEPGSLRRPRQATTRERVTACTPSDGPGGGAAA
Method: NG108-15 cell membranes were purchased from Applied Cell Sciences (Rockville, Md.). An 8 mg/mL portion of membrane protein was suspended in 10 mM TRIS-HC pH 7.2, 2 mM EDTA, 10% sucrose.
Membranes were maintained at 4-8° C. A 1 mL portion of membranes was added into 10 mL cold binding assay buffer. The assay buffer contained 50 mM Tris, pH 7.6, 5 mM MgCl2, 100 mM NaCl, 1 mM DTT and 1 mM EGTA. The membrane suspension was homogenized with a Polytron for 2 times and centrifuged at 3000 rpm for 10 min. The supernatent was then centrifuged at 18,000 rpm for 20 min. The pellet was saved in a tube and 10 ml assay buffer was added into the tube. The pellet and buffer were mixed with a Polytron.
The pellet membranes (75 μg/ml) were preincubated with SPA (10 mg/ml) at 25° C. for 45 min in the assay buffer. […] GTPγS in the same Tris buffer containing 100 μM GDP in total volume of 200 μl. Increasing concentrations of receptor agonists were used to stimulate [^35S] GTPγS binding. The basal binding was tested in the absent agonists and no specific binding was tested in the present 10 μM unlabeled GTPγS. The data were analyzed on a Top counter.
% of Basal=(stimulate−non specific)*100/(basal−non specific). EC50 values are calculated using a Prism program.

[2] = molecular target: T3, Rat brain mu opioid receptor (Rattus norvegicus, UniProt P33535); experiment: Rat brain mu opioid receptor binding assay ([3H]DAMGO)
T3 construct: from tissue; host or cells: forebrain of male Sprague Dawley rats
T3 sequence (P33535 whole entry): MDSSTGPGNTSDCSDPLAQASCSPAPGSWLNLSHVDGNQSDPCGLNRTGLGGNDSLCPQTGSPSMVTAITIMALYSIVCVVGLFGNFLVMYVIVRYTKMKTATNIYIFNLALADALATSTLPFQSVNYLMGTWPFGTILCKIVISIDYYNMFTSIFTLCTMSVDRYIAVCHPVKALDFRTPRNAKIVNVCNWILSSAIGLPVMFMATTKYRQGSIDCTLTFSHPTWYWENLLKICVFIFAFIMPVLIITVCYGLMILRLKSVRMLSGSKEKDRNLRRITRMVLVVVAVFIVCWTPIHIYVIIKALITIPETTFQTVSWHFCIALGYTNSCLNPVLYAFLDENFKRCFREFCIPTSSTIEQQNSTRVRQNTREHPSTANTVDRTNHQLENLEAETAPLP
Method: • Procedure: Male, Sprague Dawley (150-250 g, VAF, Charles River, Kingston, N.Y.) are killed by CO2, and their brains removed and placed immediately in ice cold Tris HCl buffer (50 mM, pH 7.4). The forebrains are separated from the remainder of the brain by a coronal transection, beginning dorsally at the colliculi and passing ventrally through the midbrain-pontine junction. After dissection, the forebrains are homogenized in Tris buffer in a Teflon®-glass homogenizer. The homogenate is diluted to a concentration of 1 g of forebrain tissue per 80 mL Tris and centrifuged at 39,000×g for 10 min. The pellet is resuspended in the same volume of Tris buffer containing 5 mM MgCl2 with several brief pulses from a Polytron homogenizer. This particulate preparation is used for the mu-opioid binding assays. […] Kd and Ki values are calculated using GraphPad PRISM data analysis program.

[3] = molecular target: T4, human delta opioid receptor (Homo sapiens, UniProt P41143); experiment: [35S]GTPγS binding assay in CHO-hδ cell membranes; type: biochemical; settings: hDOR GTPγS EC50, human delta opioid receptor GTPγS functional assay
T4 construct: purchased Receptor Biology, Inc. (Baltimore, Md.); host or cells: CHO cells expressing the human delta receptor (membranes)
T4 sequence (P41143 whole entry): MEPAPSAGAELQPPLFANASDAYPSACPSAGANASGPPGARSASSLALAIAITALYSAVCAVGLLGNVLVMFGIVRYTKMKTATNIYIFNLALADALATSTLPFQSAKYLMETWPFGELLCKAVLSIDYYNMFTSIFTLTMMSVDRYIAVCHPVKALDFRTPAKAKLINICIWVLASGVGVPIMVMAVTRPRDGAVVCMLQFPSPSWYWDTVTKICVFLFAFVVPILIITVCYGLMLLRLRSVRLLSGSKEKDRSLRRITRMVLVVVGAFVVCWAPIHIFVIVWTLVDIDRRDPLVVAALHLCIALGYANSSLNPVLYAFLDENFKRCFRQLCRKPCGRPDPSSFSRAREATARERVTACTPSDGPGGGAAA
Method: CHO-hδ cell membranes are purchased from Receptor Biology, Inc. (Baltimore, Md.). 10 mg/ml of membrane protein is suspended in 10 mM TRIS-HC pH 7.2, 2 mM EDTA, 10% sucrose.
(§1) Membranes are maintained at 4-8° C. 1 ml of membranes is added into 15 ml cold binding assay buffer. The assay buffer contained 50 mM HEPES, pH 7.6, 5 mM MgCl2, 100 mM NaCl, 1 mM DTT and 1 mM EDTA. The membrane suspension is homogenized with a Polytron 2 times and centrifuged at 3000 rpm for 10 min. The supernatant is then centrifuged at 18,000 rpm for 20 min. The pellet is saved in a tube and 10 ml assay buffer is added into the tube. The pellet and buffer are mixed with a Polytron.
(§2) The pellet membranes (20 μg/ml) are preincubated with SPA (10 mg/ml) at 25° C. for 45 min in the assay buffer. The SPA (5 mg/ml) coupled with membranes (10 μg/ml) is then incubated with 0.5 nM [^35S]GTPgS in the same HEPES buffer containing 50 μM GDP in total volume of 200 μl. Increasing concentrations of receptor agonists are used to stimulate [^35S]GTPgS binding. The basal binding is tested in the absence of agonists and non-specific binding is tested in the presence of 10 μM unlabeled GTP S. The data are analyzed on a Top counter.

human mu opioid receptor = molecular target: T5, human mu opioid receptor (Homo sapiens, UniProt P35372); experiment: [35S]GTPγS binding assay in CHO-hμ cell membranes; type: biochemical; settings: inhibition relative to 1 uM DAMGO, read-out: hMOR GTPγS % I @10 μM
T5 construct: purchased Receptor Biology, Inc. (Baltimore, Md.); host or cells: CHO cells expressing the human mu receptor (membranes)
T5 sequence (P35372 whole entry): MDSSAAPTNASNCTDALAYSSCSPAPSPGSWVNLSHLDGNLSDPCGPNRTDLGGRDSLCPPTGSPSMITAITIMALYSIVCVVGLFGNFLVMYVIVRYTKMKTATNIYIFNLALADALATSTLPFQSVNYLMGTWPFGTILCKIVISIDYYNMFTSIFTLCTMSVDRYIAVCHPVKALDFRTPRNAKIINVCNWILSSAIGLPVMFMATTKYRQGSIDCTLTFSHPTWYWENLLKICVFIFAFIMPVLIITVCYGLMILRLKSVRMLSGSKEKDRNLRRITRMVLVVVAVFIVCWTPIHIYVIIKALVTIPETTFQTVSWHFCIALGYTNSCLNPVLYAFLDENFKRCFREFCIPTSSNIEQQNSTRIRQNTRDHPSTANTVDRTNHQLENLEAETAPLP
Method: CHO-hμ cell membranes are purchased from Receptor Biology, Inc. (Baltimore, Md.). About 10 mg/ml of membrane protein is suspended in 10 mM TRIS-HC pH 7.2, 2 mM EDTA, 10% sucrose.
as §1, with “assay buffer contains 50 mM” for “assay buffer contained 50 mM”, “is added to the tube.” for “is added into the tube.”
as §2, with “25 C′” for “25° C.”, “present” for “presence of”, “GTPγS.” for “GTP S.”
% of Basal=(stimulate−non-specific)*100/(basal−non specific). % inhibition value values are calculated using a formula, % Inhibition=(% Basal of 1 uM DAMGO−% Basal of compound)*100/(% Basal of 1 uM DAMGO−100)

[4] = DOR GTPγS EC50, delta opioid receptor GTPγS functional assay

T1 sequence (P33533 whole entry): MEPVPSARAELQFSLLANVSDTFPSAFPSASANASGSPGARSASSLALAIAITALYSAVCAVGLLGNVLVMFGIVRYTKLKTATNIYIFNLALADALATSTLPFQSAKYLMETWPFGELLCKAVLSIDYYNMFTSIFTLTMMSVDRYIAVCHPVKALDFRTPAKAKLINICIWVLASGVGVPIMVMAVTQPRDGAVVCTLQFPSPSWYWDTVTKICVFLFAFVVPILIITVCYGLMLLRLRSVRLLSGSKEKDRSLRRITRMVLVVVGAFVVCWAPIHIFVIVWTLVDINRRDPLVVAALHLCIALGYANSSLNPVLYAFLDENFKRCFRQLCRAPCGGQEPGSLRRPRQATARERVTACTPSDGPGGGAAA

| Compound | Ki [1] | EC50 (delta opioid receptor; [4]) | Ki ([2]; rMOR Ki) | EC50 (delta opioid receptor; delta opioid receptor GTPγS functional assay, read-out: DOR GTPγS EC50) | Ki ([2]; read-out: rMOR Ki) | EC50 [3] | inhibition at 10 µM (human mu opioid receptor) |
| --- | --- | --- | --- | --- | --- | --- | --- |
| CCN(CC)C(=O)c1ccc2c(c1)Oc1c(Br)cccc1C2=C1CC2CCC(C1)N2 [Compound 94, 9-(8-Aza-bicyclo[3.2.1]oct-3-ylidene)-5-bromo-9H-xanthene-3-carboxylic acid diethylamide] | 2.28 nM | 14.1 nM | 674 nM | – | – | – | – |
| CCN(CC)C(=O)c1ccc2c(c1)Oc1c(cccc1-c1ccsc1)C2=C1CC2CCC(C1)N2 [Compound 99, 9-(8-Aza-bicyclo[3.2.1]oct-3-ylidene)-5-thiophen-3-yl-9H-xanthene-3-carboxylic acid diethylamide] | 19.3 nM | 12.5 nM | 3490 nM | – | – | – | – |
| CCN(CC)C(=O)c1ccc2c(c1)Oc1c(cccc1-c1ccncc1)C2=C1CC2CCC(C1)N2 [Compound 96, 9-(8-Aza-bicyclo[3.2.1]oct-3-ylidene)-5-pyridin-4-yl-9H-xanthene-3-carboxylic acid diethylamide] | 1.69 nM | 35.3 nM | 4220 nM | – | – | – | – |
| CCNC(=O)c1ccc2c(c1)Oc1ccccc1C2=C1CC2CCC(C1)N2 (single isomer, unassigned) [Compound 55] | 66.5 nM | – | – | > 1000 nM | 1860 nM | – | – |
| CCN(CC)C(=O)c1ccc2c(c1)Oc1cc(O)ccc1C2=C1CC2CCC(C1)N2 [Compound 76, 9-(8-Aza-bicyclo[3.2.1]oct-3-ylidene)-6-hydroxy-9H-xanthene-3-carboxylic acid diethylamide] | 1.7 nM | 5.91 nM | 285 nM | – | – | – | – |
| CCN(CC)C(=O)c1ccc2c(c1)Oc1ccccc1C2=C1CC2CCC(C1)N2 (single isomer, unassigned) [Compound 53, 9-(8-Aza-bicyclo[3.2.1]oct-3-ylidene)-9H-xanthene-3-carboxylic acid diethylamide] | 50.1 nM | 2060 nM | – | – | > 100 nM | 257 nM | – |
| CCN(CC)C(=O)c1ccc2c(c1)Oc1ccccc1C2=C1CC2CCC(C1)N2 (single isomer, unassigned) [Compound 52, 9-(8-Aza-bicyclo[3.2.1]oct-3-ylidene)-9H-xanthene-3-carboxylic acid diethylamide] | 0.61 nM | 66 nM | > 100 nM | – | – | 4.44 nM | – |
| CCN(CC)C(=O)c1ccc2c(c1)Oc1c(cccc1-c1cccnc1)C2=C1CC2CCC(C1)N2 [Compound 101, 9-(8-Aza-bicyclo[3.2.1]oct-3-ylidene)-5-pyridin-3-yl-9H-xanthene-3-carboxylic acid diethylamide] | 9.14 nM | 19.3 nM | 532 nM | – | – | – | – |
| CC(C)N(C)C(=O)c1ccc2c(c1)Oc1ccccc1C2=C1CC2CCC(C1)N2 [Compound 92, 9-(8-Aza-bicyclo[3.2.1]oct-3-ylidene)-9H-xanthene-3-carboxylic acid isopropyl-methyl-amide] | 2.09 nM | 55.3 nM | 2.09 nM | – | – | – | – |
| CCN(CC)C(=O)c1ccc2c(c1)Oc1c(cccc1-c1ccoc1)C2=C1CC2CCC(C1)N2 [Compound 97, 9-(8-Aza-bicyclo[3.2.1]oct-3-ylidene)-5-furan-3-yl-9H-xanthene-3-carboxylic acid diethylamide] | 1.78 nM | 13.3 nM | 1810 nM | – | – | – | – |
| CCN(CC)C(=O)c1ccc2c(c1)Oc1ccc(F)cc1C2=C1CC2CCC(C1)N2 [Compound 69] | 4.99 nM | 126 nM | 5830 nM | – | – | – | – |
| CCN(CC)C(=O)c1ccc2c(c1)Oc1ccccc1C2=C1CCN(Cc2ccccn2)CC1 [Compound 29] | 0.05 nM | – | 362 nM | – | – | 31.6 nM | 34% |
| CCN(CC)C(=O)c1ccc2c(c1)Sc1ccccc1C2=C1CC2CCC(C1)N2 (single isomer, unassigned) [Compound 61, 9-(8-Aza-bicyclo[3.2.1]oct-3-ylidene)-9H-thioxanthene-3-carboxylic acid diethylamide] | 133 nM | 188 nM | 7180 nM | – | – | – | – |
| CCN(CC)C(=O)c1ccc2c(c1)Oc1c(OC)cccc1C2=C1CC2CCC(C1)N2 [Compound 68, 9-(8-Aza-bicyclo[3.2.1]oct-3-ylidene)-5-methoxy-9H-xanthene-3-carboxylic acid diethylamide] | 0.74 nM | 22 nM | 1290 nM | – | – | – | – |
| CCN(CC)C(=O)c1ccc2c(c1)Sc1ccccc1C2=C1CC2CCC(C1)N2 (single isomer, unassigned) [Compound 62, 9-(8-Aza-bicyclo[3.2.1]oct-3-ylidene)-9H-thioxanthene-3-carboxylic acid diethylamide] | 2.96 nM | 8.35 nM | 739 nM | – | – | – | – |
| CCN(CC)C(=O)c1ccc2c(c1)Oc1c(O)cccc1C2=C1CC2CCC(C1)N2 [Compound 100, 9-(8-Aza-bicyclo[3.2.1]oct-3-ylidene)-5-hydroxy-9H-xanthene-3-carboxylic acid diethylamide] | 0.274 nM | 0.452 nM | 5.85 nM | – | – | – | – |
| CCN(CC)C(=O)c1ccc2c(c1)Oc1ccccc1C2=C1CC2CCC(C1)N2Cc1ccccn1 [Compound 44] | 0.15 nM | – | 77.2 nM | – | – | 0.873 nM | 28% |
